Results as given in patent publication US20250388605A1, “HETEROBIFUNCTIONAL COMPOUNDS AND METHODS OF TREATING DISEASE” (Halda Therapeutics OpCo, Inc., priority 2022, published 2025).

Tests used:
T47D cells = test: Cellular Growth Inhibition Assay for T47D Cells (CellTiter-Glo); format: cell-based, human; conditions: 72 hours
How it was run: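 GI50 values derive from four-parameter regression of CellTiter-Glo 2.0 luminescence, using zero luminescence as baseline. Human breast cancer T47D cells (3000/well; DMEM, 10% FBS, 0.2 units/mL insulin) were exposed for 72 h to compound dilutions at 0.5% DMSO, with dosing starting 24 h after seeding.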

BRD4-BD1 = target: T1, BRD4-BD1 (Homo sapiens, UniProt O60885); test: Binding affinity to BRD4-BD1 (bromoKdELECT assay); conditions: 11-point 3-fold dilution series
T1 construct: made in house; host or cells: T7 phage grown in an E. coli host derived from the BL21 strain

| Structure (SMILES) | GI50 (T47D cells; Homo sapiens) | Kd (BRD4-BD1) | GI50 (T47D cells) |
| --- | --- | --- | --- |
| CCS(=O)(=O)Nc1ccc(Oc2cccc(COC3CCN(c4ncc(C(=O)N[C@H]5C(C)(C)[C@H](Oc6ccc(C#N)c(Cl)c6)C5(C)C)cn4)CC3)c2)c(-c2cn(C)c(=O)c3[nH]ccc23)c1 [Compound I-18, N-((1r, 3r)-3-(3-chloro-4-cyanophenoxy)-2,2,4,4-tetramethylcyclobutyl)-2-(4-((3-(4-(ethylsulfonamido)-2-(6-methyl-7-oxo-6,7-dihydro-1H-pyrrolo[2,3-c]pyridin-4-yl)phenoxy)benzyl)oxy)piperidin-1-yl)pyrimidine-5-carboxamide] | < 500 nM | 500 to 2500 nM |  |
| CCS(=O)(=O)Cc1ccc(Oc2cccc(OCCOC3CCN(c4ncc(C(=O)N[C@H]5C(C)(C)[C@H](Oc6ccc(C#N)c(Cl)c6)C5(C)C)cn4)CC3)c2)c(-c2cn(C)c(=O)c3[nH]ccc23)c1 [Compound I-54, N-((1r, 3r)-3-(3-chloro-4-cyanophenoxy)-2,2,4,4-tetramethylcyclobutyl)-2-(4-(2-(3-(4-((ethylsulfonyl)methyl)-2-(6-methyl-7-oxo-6,7-dihydro-1H-pyrrolo[2,3-c]pyridin-4-yl)phenoxy)phenoxy)ethoxy)piperidin-1-yl)pyrimidine-5-carboxamide] | < 500 nM | > 2500 nM |  |
| Cn1cc(-c2cc(C(C)(C)O)ccc2Oc2cccc(OCCOC3CCN(c4ncc(C(=O)N[C@H]5C(C)(C)[C@H](Oc6ccc(C#N)c(Cl)c6)C5(C)C)cn4)CC3)c2)c2cc[nH]c2c1=O [Compound I-56, N-((1r, 3r)-3-(3-chloro-4-cyanophenoxy)-2,2,4,4-tetramethylcyclobutyl)-2-(4-(2-(3-(4-(2-hydroxypropan-2-yl)-2-(6-methyl-7-oxo-6,7-dihydro-1H-pyrrolo[2,3-c]pyridin-4-yl)phenoxy)phenoxy)ethoxy)piperidin-1-yl)pyrimidine-5-carboxamide] | < 500 nM | 500 to 2500 nM |  |
| Cn1cc(-c2ccccc2Oc2cccc(OCCOC3CCN(c4ncc(C(=O)N[C@H]5C(C)(C)[C@H](Oc6ccc(C#N)c(Cl)c6)C5(C)C)cn4)CC3)c2)c2cc[nH]c2c1=O [Compound I-61, N-((1r, 3r)-3-(3-chloro-4-cyanophenoxy)-2,2,4,4-tetramethylcyclobutyl)-2-(4-(2-(3-(2-(6-methyl-7-oxo-6,7-dihydro-1H-pyrrolo[2,3-c]pyridin-4-yl)phenoxy)phenoxy)ethoxy)piperidin-1-yl)pyrimidine-5-carboxamide] | < 500 nM | > 2500 nM |  |
| Cn1cc(-c2cc(N)ccc2Oc2cccc(OCCOC3CCN(c4ncc(C(=O)N[C@H]5C(C)(C)[C@H](Oc6ccc(C#N)c(Cl)c6)C5(C)C)cn4)CC3)c2)c2cc[nH]c2c1=O [Compound I-62, 2-(4-(2-(3-(4-amino-2-(6-methyl-7-oxo-6,7-dihydro-1H-pyrrolo[2,3-c]pyridin-4-yl)phenoxy)phenoxy)ethoxy)piperidin-1-yl)-N-((1r, 3r)-3-(3-chloro-4-cyanophenoxy)-2,2,4,4-tetramethylcyclobutyl)pyrimidine-5-carboxamide] | 500 to 1500 nM | > 2500 nM |  |
| CCS(=O)(=O)Nc1ccc(Oc2ccc(F)c(OCCOC3CCN(c4ncc(C(=O)N[C@H]5C(C)(C)[C@H](Oc6ccc(C#N)c(Cl)c6)C5(C)C)cn4)CC3)c2F)c(-c2cn(C)c(=O)c3[nH]ccc23)c1 [Compound I-65] | < 500 nM | 500 to 2500 nM |  |
| CCS(=O)(=O)Nc1ccc(Oc2cccc(N3CC(N4CCN(c5ncc(C(=O)N[C@H]6C(C)(C)[C@H](Oc7ccc(C#N)c(Cl)c7)C6(C)C)cn5)CC4)C3)c2)c(-c2cn(C)c(=O)c3[nH]ccc23)c1 [Compound I-75] | < 500 nM | 50 to 500 nM |  |
| CCS(=O)(=O)Nc1ccc(Oc2cccc(N3CC(OC4CCN(c5ncc(C(=O)N[C@H]6C(C)(C)[C@H](Oc7ccc(C#N)c(Cl)c7)C6(C)C)cn5)CC4)C3)c2)c(-c2cn(C)c(=O)c3[nH]ccc23)c1 [Compound I-80] | < 500 nM | 50 to 500 nM |  |
| CCS(=O)(=O)Nc1ccc(Oc2cccc(NCCOC3CCN(c4ncc(C(=O)N[C@H]5C(C)(C)[C@H](Oc6ccc(C#N)c(Cl)c6)C5(C)C)cn4)CC3)c2)c(-c2cn(C)c(=O)c3[nH]ccc23)c1 [Compound I-84] | < 500 nM | < 50 nM |  |
| CN(c1ccc(Oc2cccc(N3CC(N4CCN(c5ncc(C(=O)N[C@H]6C(C)(C)[C@H](Oc7ccc(C#N)c(Cl)c7)C6(C)C)cn5)CC4)C3)c2)c(-c2cn(C)c(=O)c3[nH]ccc23)c1)S(=O)(=O)C1CC1 [Compound I-88, N-((1r, 3r)-3-(3-chloro-4-cyanophenoxy)-2,2,4,4-tetramethylcyclobutyl)-2-(4-(1-(3-(2-(6-methyl-7-oxo-6,7-dihydro-1H-pyrrolo[2,3-c]pyridin-4-yl)-4-(N-methylcyclopropanesulfonamido)phenoxy)phenyl)azetidin-3-yl)piperazin-1-yl)pyrimidine-5-carboxamide] | 500 to 1500 nM | 500 to 2500 nM |  |
| Cn1cc(-c2ccccc2Oc2cccc(N3CC(N4CCN(c5ncc(C(=O)N[C@H]6C(C)(C)[C@H](Oc7ccc(C#N)c(Cl)c7)C6(C)C)cn5)CC4)C3)c2)c2cc[nH]c2c1=O [Compound I-90, N-((1r, 3r)-3-(3-chloro-4-cyanophenoxy)-2,2,4,4-tetramethylcyclobutyl)-2-(4-(1-(3-(2-(6-methyl-7-oxo-6,7-dihydro-1H-pyrrolo[2,3-c]pyridin-4-yl)phenoxy)phenyl)azetidin-3-yl)piperazin-1-yl)pyrimidine-5-carboxamide] | 500 to 1500 nM | > 2500 nM |  |
| CN(c1ccc(Oc2cccc(N3CC(N4CCN(c5ncc(C(=O)N[C@H]6C(C)(C)[C@H](Oc7ccc(C#N)c(Cl)c7)C6(C)C)cn5)CC4)C3)c2F)c(-c2cn(C)c(=O)c3[nH]ccc23)c1)S(=O)(=O)C1CC1 [Compound I-91] | 500 to 1500 nM | 50 to 500 nM |  |
| Cn1cc(-c2cc(C(C)(C)O)ccc2Oc2cccc(N3CC(N4CCN(c5ncc(C(=O)N[C@H]6C(C)(C)[C@H](Oc7ccc(C#N)c(Cl)c7)C6(C)C)cn5)CC4)C3)c2F)c2cc[nH]c2c1=O [Compound I-92, N-((1r, 3r)-3-(3-chloro-4-cyanophenoxy)-2,2,4,4-tetramethylcyclobutyl)-2-(4-(1-(2-fluoro-3-(4-(2-hydroxypropan-2-yl)-2-(6-methyl-7-oxo-6,7-dihydro-1H-pyrrolo[2,3-c]pyridin-4-yl)phenoxy)phenyl)azetidin-3-yl)piperazin-1-yl)pyrimidine-5-carboxamide] | < 500 nM | 50 to 500 nM |  |
| Cn1cc(-c2ccccc2Oc2cccc(N3CC(N4CCN(c5ncc(C(=O)N[C@H]6C(C)(C)[C@H](Oc7ccc(C#N)c(Cl)c7)C6(C)C)cn5)CC4)C3)c2F)c2cc[nH]c2c1=O [Compound I-94] | 500 to 1500 nM | 500 to 2500 nM |  |
| Cn1cc(-c2cc(C(C)(C)O)ccc2Oc2cccc(OCCN3CCN(c4ncc(C(=O)N[C@H]5C(C)(C)[C@H](Oc6ccc(C#N)c(Cl)c6)C5(C)C)cn4)CC3)c2)c2cc[nH]c2c1=O [Compound I-96] | 500 to 1500 nM | 500 to 2500 nM |  |
| Cn1cc(-c2ccccc2Oc2cccc(OCCN3CCN(c4ncc(C(=O)N[C@H]5C(C)(C)[C@H](Oc6ccc(C#N)c(Cl)c6)C5(C)C)cn4)CC3)c2)c2cc[nH]c2c1=O [Compound I-98] | < 500 nM | > 2500 nM |  |
| Cn1cc(-c2cc(C(C)(C)O)ccc2Oc2cccc(OCCN3CCN(c4ncc(C(=O)N[C@H]5C(C)(C)[C@H](Oc6ccc(C#N)c(Cl)c6)C5(C)C)cn4)CC3)c2F)c2cc[nH]c2c1=O [Compound I-99] | 500 to 1500 nM | 500 to 2500 nM |  |
| Cn1cc(-c2cc(C(C)(C)O)ccc2Oc2cccc(N3CC(N4CCN(c5ncc(C(=O)N[C@H]6C(C)(C)[C@H](Oc7ccc(C#N)c(Cl)c7)C6(C)C)cn5)CC4)C3)c2)c2cc[nH]c2c1=O [Compound I-105] | 500 to 1500 nM | 500 to 2500 nM |  |
| CC(C)c1ccc(Oc2cccc(OCCN3CCN(c4ncc(C(=O)NC5C(C)(C)C(Oc6ccc(C#N)c(Cl)c6)C5(C)C)cn4)CC3)c2)c(-c2cn(C)c(=O)c3[nH]ccc23)c1 (stereo not shown) [Compound I-107, N-[3-(3-chloro-4-cyano-phenoxy)-2,2,4,4-tetramethyl-cyclobutyl]-2-[4-[2-[3-[4-isopropyl-2-(6-methyl-7-oxo-1H-pyrrolo[2,3-c]pyridin-4-yl)phenoxy]phenoxy]ethyl]piperazin-1-yl]pyrimidine-5-carboxamide] | < 500 nM | 50 to 500 nM |  |
| Cn1cc(-c2cc(C(C)(C)O)ccc2Oc2cccc(CCCN3CCN(c4ncc(C(=O)N[C@H]5C(C)(C)[C@H](Oc6ccc(C#N)c(Cl)c6)C5(C)C)cn4)CC3)c2)c2cc[nH]c2c1=O [Compound I-110] | < 500 nM | 500 to 2500 nM |  |
| CCS(=O)(=O)Nc1ccc(Oc2cccc(OCCOC3CCN(c4ncc(C(=O)N[C@H]5C(C)(C)[C@H](Oc6ccc(C#N)c(Cl)c6)C5(C)C)cn4)CC3)c2)c(-c2cn(C)c(=O)c3c2ccn3C)c1 [Compound I-121] | 500 to 1500 nM | > 2500 nM |  |
| CCS(=O)(=O)Nc1ccc(Oc2cccc(N3CCN(C4CN(c5ncc(C(=O)N[C@H]6C(C)(C)[C@H](Oc7ccc(C#N)c(Cl)c7)C6(C)C)cn5)C4)CC3)c2)c(-c2cn(C)c(=O)c3[nH]ccc23)c1 [Compound I-126] | < 500 nM | 50 to 500 nM |  |
| Cn1cc(-c2ccccc2Oc2cccc(OCCOC3CCN(c4ncc(C(=O)N[C@H]5C(C)(C)[C@H](Oc6ccc(C#N)c(Cl)c6)C5(C)C)cn4)CC3)c2)c2ccn(C)c2c1=O [Compound I-137] | < 500 nM | > 2500 nM |  |
| CCS(=O)(=O)Nc1ccc(Oc2ccc(OCC3CCN(c4ncc(C(=O)N[C@H]5C(C)(C)[C@H](Oc6ccc(C#N)c(Cl)c6)C5(C)C)cn4)CC3)cc2)c(-c2cn(C)c(=O)c3[nH]ccc23)c1 [Compound I-138] |  | > 2500 nM | < 500 nM |
| Cn1cc(-c2cc(C(C)(C)O)ccc2Oc2cccc(OCCC3CCN(c4ncc(C(=O)N[C@H]5C(C)(C)[C@H](Oc6ccc(C#N)c(Cl)c6)C5(C)C)cn4)CC3)c2F)c2cc[nH]c2c1=O [Compound I-142] | 500 to 1500 nM | > 2500 nM |  |
| Cn1cc(-c2cc(C(C)(C)O)ccc2Oc2cccc(CCCN3CCN(c4ncc(C(=O)N[C@H]5C(C)(C)[C@H](Oc6ccc(C#N)c(Cl)c6)C5(C)C)cn4)CC3)c2F)c2cc[nH]c2c1=O [Compound I-143] | 500 to 1500 nM | 50 to 500 nM |  |
